{"source": "patent US20260217697A1", "about": "“COMPOUNDS COMPRISING HETEROARYL RINGS AND COMPOSITIONS AND METHODS THEREOF” (lonGen Therapeutics Co., Ltd., priority 2022, published 2026)", "target": "T1, hTRPV3 (Homo sapiens, UniProt Q8NET8)", "T1 construct": "The commercially available plasmid with the full-length cDNA of hTRPV3 (791 aa) (NM_001258205.2); host or cells: HEK293T", "T1 sequence (Q8NET8 1-791 isoform Q8NET8-2)": "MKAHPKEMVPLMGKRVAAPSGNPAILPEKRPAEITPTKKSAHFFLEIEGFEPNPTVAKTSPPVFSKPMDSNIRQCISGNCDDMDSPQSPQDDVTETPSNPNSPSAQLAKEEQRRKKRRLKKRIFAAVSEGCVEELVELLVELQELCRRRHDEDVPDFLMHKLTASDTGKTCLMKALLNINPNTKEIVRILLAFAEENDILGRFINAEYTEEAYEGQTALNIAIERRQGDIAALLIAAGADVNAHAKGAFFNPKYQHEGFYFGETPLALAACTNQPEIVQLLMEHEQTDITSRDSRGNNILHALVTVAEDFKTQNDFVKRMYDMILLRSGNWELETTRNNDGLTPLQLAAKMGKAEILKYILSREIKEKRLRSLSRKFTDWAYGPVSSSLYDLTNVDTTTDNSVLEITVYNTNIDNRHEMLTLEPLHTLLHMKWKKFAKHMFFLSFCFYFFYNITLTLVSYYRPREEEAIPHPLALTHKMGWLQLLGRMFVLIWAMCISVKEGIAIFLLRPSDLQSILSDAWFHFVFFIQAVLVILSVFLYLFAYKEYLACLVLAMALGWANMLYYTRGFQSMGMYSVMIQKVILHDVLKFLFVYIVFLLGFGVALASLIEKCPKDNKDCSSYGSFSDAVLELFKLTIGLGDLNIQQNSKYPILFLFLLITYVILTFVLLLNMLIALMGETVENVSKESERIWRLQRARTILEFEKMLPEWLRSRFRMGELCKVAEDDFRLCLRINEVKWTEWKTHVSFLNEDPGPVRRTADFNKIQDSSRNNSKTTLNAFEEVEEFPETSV", "test": "Whole-cell patch-clamp recording of hTRPV3 current in transfected HEK293T cells (2-APB induced)", "assay_type": "cell-based", "conditions": "current induced by 300 μM 2-APB, compounds tested up to 10 μM, room temperature", "how_it_was_run": "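HEK293T cells transiently expressing full-length hTRPV3, recorded by whole-cell patch clamp 18 h post-transfection at room temperature, with 130 mM NaCl/0.3 mM EDTA/3 mM HEPES pH 7.4 on both sides. Holding potential 0 mV; 400-ms steps to +80 and −80 mV every 2 s. Block of 2-APB-evoked current, tested up to 10 μM, fitted to Hill equation for IC50.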"}
{"smiles": "C#Cc1ccc2c(c1)OC(CC)(CC)c1sc(NC(=O)c3c(OC)ncnc3OC)nc1-2", "note": "[compound 81, N-(4,4-diethyl-7-ethynyl-4H-chromeno[4,3-d]thiazol-2-yl)-4,6-dimethoxypyrimidine-5-carboxamide]", "values": [{"measurement": "IC50", "result": "0.1 to 1", "unit": "µM"}]}
{"smiles": "C=CCCOc1ncnc(OC)c1C(=O)Nc1nc2c(s1)C1(CCCCC1)Oc1cc(C(F)(F)F)ccc1-2", "note": "[compound 43, 4-(but-3-en-1-yloxy)-6-methoxy-N-(7-(trifluoromethyl)spiro[chromeno[4,3-d]thiazole-4,1′-cyclohexan]-2-yl)pyrimidine-5-carboxamide]", "values": [{"measurement": "IC50", "result": "0.1 to 1", "unit": "µM"}]}
{"smiles": "CCC1(CC)Oc2cc(C(F)(F)F)ccc2-c2nc(NC(=O)c3c(Cl)ncnc3Cl)sc21", "note": "[compound 111, 4,6-dichloro-N-(4,4-diethyl-7-(trifluoromethyl)-4H-chromeno[4,3-d]thiazol-2-yl)pyrimidine-5-carboxamide]", "values": [{"measurement": "IC50", "result": "1 to 10", "unit": "µM"}]}
{"smiles": "COc1ncnc(OC)c1C(=O)Nc1nc2c(s1)C1(CCCC1)Oc1cc(C(F)(F)F)ccc1-2", "note": "[compound 23, 4,6-dimethoxy-N-(7-(trifluoromethyl)spiro[chromeno[4,3-d]thiazole-4,1′-cyclopentan]-2-yl)pyrimidine-5-carboxamide]", "values": [{"measurement": "IC50", "result": "0.1 to 1", "unit": "µM"}]}
{"smiles": "COc1ncnc(OC)c1C(=O)Nc1nc2c(s1)C1(COC1)Oc1cc(C3CC3)ccc1-2", "note": "[compound 138, N-(7-cyclopropylspiro[chromeno[4,3-d]thiazole-4,3′-oxetan]-2-yl)-4,6-dimethoxypyrimidine-5-carboxamide]", "values": [{"measurement": "IC50", "result": "0.1 to 1", "unit": "µM"}]}
{"smiles": "CCCCCCC1(C)Oc2cc(C(F)(F)F)ccc2-c2nc(NC(=O)c3c(OC)ncnc3OC)sc21", "note": "(stereo not drawn) [compound 41, N-(4-hexyl-4-methyl-7-(trifluoromethyl)-4H-chromeno[4,3-d]thiazol-2-yl)-4,6-dimethoxypyrimidine-5-carboxamide]", "values": [{"measurement": "IC50", "result": "0.1 to 1", "unit": "µM"}]}
{"smiles": "COc1ncnc(OC)c1C(=O)Nc1nc2c(cnc3cc(C(F)(F)F)ccc32)s1", "note": "[compound 72, 4,6-dimethoxy-N-(7-(trifluoromethyl)thiazolo[5,4-c]quinolin-2-yl)pyrimidine-5-carboxamide]", "values": [{"measurement": "IC50", "result": "1 to 10", "unit": "µM"}]}
{"smiles": "COc1ncnc(OC)c1C(=O)Nc1nc2c(s1)C1(CN(C(=O)OC(C)(C)C)C1)Oc1cc(C(F)(F)F)ccc1-2", "note": "[compound 63, tert-butyl 2′-(4,6-dimethoxypyrimidine-5-carboxamido)-7′-(trifluoromethyl)spiro[azetidine-3,4′-chromeno[4,3-d]thiazole]-1-carboxylate]", "values": [{"measurement": "IC50", "result": "< 0.1", "unit": "µM"}]}
{"smiles": "COc1ncnc(OC)c1C(=O)Nc1nc2c(s1)C1(CN(C3CC3)C1)Oc1cc(C(F)(F)F)ccc1-2", "note": "[compound 149, N-(1-cyclopropyl-7′-(trifluoromethyl)spiro[azetidine-3,4′-chromeno[4,3-d]thiazol]-2′-yl)-4,6-dimethoxypyrimidine-5-carboxamide]", "values": [{"measurement": "IC50", "result": "< 0.1", "unit": "µM"}]}
{"smiles": "COc1ncnc(OC)c1C(=O)Nc1nc2c(s1)C1(CCOC1)Oc1cc(C(F)(F)F)ccc1-2", "note": "(stereo not drawn) [compound 21, 4,6-dimethoxy-N-(7-(trifluoromethyl)-4′,5′-dihydro-2′H-spiro[chromeno[4,3-d]thiazole-4,3′-furan]-2-yl)pyrimidine-5-carboxamide]", "values": [{"measurement": "IC50", "result": "0.1 to 1", "unit": "µM"}]}
{"smiles": "COc1ncnc(OC)c1C(=O)Nc1nc2c(s1)C1(COC1)Oc1cc(C#N)ccc1-2", "note": "[compound 137, N-(7-cyanospiro[chromeno[4,3-d]thiazole-4,3′-oxetan]-2-yl)-4,6-dimethoxypyrimidine-5-carboxamide]", "values": [{"measurement": "IC50", "result": "≥ 10", "unit": "µM"}]}
{"smiles": "COc1ncnc(OC)c1C(=O)Nc1nc2c(s1)C1(CN(CC(C)C)C1)Oc1cc(C(F)(F)F)ccc1-2", "note": "[compound 150, N-(1-isobutyl-7′-(trifluoromethyl)spiro[azetidine-3,4′-chromeno[4,3-d]thiazol]-2′-yl)-4,6-dimethoxypyrimidine-5-carboxamide]", "values": [{"measurement": "IC50", "result": "< 0.1", "unit": "µM"}]}
{"smiles": "CNC(=O)C1CCC2(CC1)Oc1cc(C(F)(F)F)ccc1-c1nc(NC(=O)c3c(OC)ncnc3OC)sc12", "note": "(stereo not drawn) [compound 103, 2-(4,6-dimethoxypyrimidine-5-carboxamido)-N-methyl-7-(trifluoromethyl)spiro[chromeno[4,3-d]thiazole-4,1′-cyclohexane]-4′-carboxamide]", "values": [{"measurement": "IC50", "result": "1 to 10", "unit": "µM"}]}
{"smiles": "CCC1(CC)Oc2cc(C(F)(F)F)ccc2-c2nc(NC(=O)c3c(OC)nc(N)nc3OC)sc21", "note": "[compound 80, 2-amino-N-(4,4-diethyl-7-(trifluoromethyl)-4H-chromeno[4,3-d]thiazol-2-yl)-4,6-dimethoxypyrimidine-5-carboxamide]", "values": [{"measurement": "IC50", "result": "≥ 10", "unit": "µM"}]}
{"smiles": "COc1ncnc(OC)c1C(=O)Nc1nc2c(s1)C1(COC1)Oc1cc(C(F)(F)F)ccc1-2", "note": "[compound 65, 4,6-dimethoxy-N-(7-(trifluoromethyl)spiro[chromeno[4,3-d]thiazole-4,3′-oxetan]-2-yl)pyrimidine-5-carboxamide]", "values": [{"measurement": "IC50", "result": "0.1 to 1", "unit": "µM"}]}
{"smiles": "COc1ncnc(OC)c1C(=O)Nc1nc2c(s1)C1(COC1)Oc1cc(Br)ccc1-2", "note": "[compound 134, N-(7-bromospiro[chromeno[4,3-d]thiazole-4,3′-oxetan]-2-yl)-4,6-dimethoxypyrimidine-5-carboxamide]", "values": [{"measurement": "IC50", "result": "0.1 to 1", "unit": "µM"}]}
{"smiles": "CCC1(CC)Oc2cc(N3CCOCC3)ccc2-c2nc(NC(=O)c3c(OC)ncnc3OC)sc21", "note": "[compound 58, N-(4,4-diethyl-7-morpholino-4H-chromeno[4,3-d]thiazol-2-yl)-4,6-dimethoxypyrimidine-5-carboxamide]", "values": [{"measurement": "IC50", "result": "1 to 10", "unit": "µM"}]}
{"smiles": "CCC1(CC)Oc2cc(C(F)(F)F)ccc2-c2nc(NC(=O)c3c(OC)ccnc3OC)sc21", "note": "[compound 98, N-(4,4-diethyl-7-(trifluoromethyl)-4H-chromeno[4,3-d]thiazol-2-yl)-2,4-dimethoxynicotinamide]", "values": [{"measurement": "IC50", "result": "0.1 to 1", "unit": "µM"}]}
{"smiles": "COc1ncnc(OC)c1C(=O)Nc1nc2c(s1)C(C)(C)Nc1cc(C(F)(F)F)ccc1-2", "note": "[compound 85, N-(4,4-dimethyl-7-(trifluoromethyl)-4,5-dihydrothiazolo[5,4-c]quinolin-2-yl)-4,6-dimethoxypyrimidine-5-carboxamide]", "values": [{"measurement": "IC50", "result": "1 to 10", "unit": "µM"}]}
{"smiles": "COc1ncnc(OC)c1C(=O)Nc1nc2c(s1)COc1ccc(Cl)cc1-2", "note": "[compound 86, N-(8-chloro-4H-chromeno[4,3-d]thiazol-2-yl)-4,6-dimethoxypyrimidine-5-carboxamide]", "values": [{"measurement": "IC50", "result": "1 to 10", "unit": "µM"}]}
{"smiles": "COc1ncnc(OC)c1C(=O)Nc1nc2c(s1)C(C)(CCCC(=O)O)Oc1cc(C(F)(F)F)ccc1-2", "note": "(stereo not drawn) [compound 114, 4-(2-(4,6-dimethoxypyrimidine-5-carboxamido)-4-methyl-7-(trifluoromethyl)-4H-chromeno[4,3-d]thiazol-4-yl) butanoic acid]", "values": [{"measurement": "IC50", "result": "1 to 10", "unit": "µM"}]}
{"smiles": "COCOCC1(COCOC)Oc2cc(C(F)(F)F)ccc2-c2nc(NC(=O)c3c(OC)ncnc3OC)sc21", "note": "[compound 118]", "values": [{"measurement": "IC50", "result": "0.1 to 1", "unit": "µM"}]}
{"smiles": "CCOC(=O)N1CC2(C1)Oc1cc(C(F)(F)F)ccc1-c1nc(NC(=O)c3c(OC)ncnc3OC)sc12", "note": "[compound 78, ethyl 2′-(4,6-dimethoxypyrimidine-5-carboxamido)-7′-(trifluoromethyl)spiro[azetidine-3,4′-chromeno[4,3-d]thiazole]-1-carboxylate]", "values": [{"measurement": "IC50", "result": "0.1 to 1", "unit": "µM"}]}
{"smiles": "COc1ncnc(OC)c1C(=O)Nc1nc2c(s1)C1(CCN(S(C)(=O)=O)CC1)Oc1cc(C(F)(F)F)ccc1-2", "note": "[compound 73, 4,6-dimethoxy-N-(1′-(methylsulfonyl)-7-(trifluoromethyl)spiro[chromeno[4,3-d]thiazole-4,4′-piperidin]-2-yl)pyrimidine-5-carboxamide]", "values": [{"measurement": "IC50", "result": "1 to 10", "unit": "µM"}]}
